Earlier results in patent publication US11141509B2, “Method for loading at least two powder substances into recesses provided at a stent surface” (CID S.p.A., priority 2016, dated 2021).

Settings: Cre8 coronary stent, Amphilimus formulation; Eurointervention 2012; 7:1087-1094

in vivo release after coronary implantation: greater than 30 days
SMILES: CO[C@H]1C[C@@H]2CC[C@@H](C)[C@@](O)(O2)C(=O)C(=O)N2CCCC[C@H]2C(=O)O[C@H]([C@H](C)C[C@@H]2CC[C@@H](O)[C@H](OC)C2)CC(=O)[C@H](C)/C=C(\C)[C@@H](O)[C@@H](OC)C(=O)[C@H](C)C[C@H](C)/C=C/C=C/C=C/1C [Sirolimus]
